Reference: US12391721B2, “Crystal forms of beta-nicotinamide mononucleotide” (Metro International Biotech, LLC, priority 2015, dated 2025)

Tests used:
Assay type in all cases: physicochemical
[1] = Three month stability and forced degradation study: HPLC purity of stored solids; conditions: for Known Impurity* (%) (nicotinamide, RRT = 1.73 min) / Purity (%): HPLC
Description: Purity analysis was performed on an Agilent HP1100 series system equipped with a diode array detector and using ChemStation software vB.04.03 using the method detailed below in Table 1.
(§1) […] The samples were prepared in duplicate with an offset of 2 weeks. Each replicate was stored in a different container.
(§2) Replicate 1 was charged in an open HPLC vial that was placed in a sealed scintillation vial containing a saturated solution of the relevant inorganic salt (Table 2). These samples were analysed by HPLC, 1H NMR, XRPD and Polarized Light Microscopy (PLM) at 4, 8, and 12 week time points.
(§3) Replicate 2 was stored in sealed box with a recipient containing a saturated solution of the relevant inorganic salt (Table 2). These samples were analysed by HPLC at 2, 6, 10 and 12 week time points. Samples at 25° C./0% RH were stored in a sealed box containing a desiccant agent (P2O5).

[2] = Three month stability and forced degradation study: solid form by XRPD after storage; conditions: for XRPD: Replicate 1
Description: X-Ray Powder Diffraction patterns were collected on a Bruker D8 diffractometer using Cu Kα radiation (40 kV, 40 mA), θ-2θ goniometer, and divergence of V4 and receiving slits, a Ge monochromator and a Lynxeye detector. The instrument is performance checked using a certified Corundum standard (NIST 1976). The software used for data collection was Diffrac Plus XRD Commander v2.6.1 and the data were analysed and presented using Diffrac Plus EVA v15.0.0.0.
Samples were run under ambient conditions as flat plate specimens using powder as received. The sample was gently packed into a cavity cut into polished, zero-background (510) silicon wafer. The sample was rotated in its own plane during analysis. The details of the data collection are: • Angular range: 2 to 42° 2θ • Step size: 0.05° 2θ • Collection time: 0.5 s/step HPLC
as §1, §2

[3] = Dynamic vapor sorption (DVS) of amorphous NMN; conditions: FIG. 7
Text: When a sample of amorphous NMN is exposed to atmospheric humidity, the sample goes through phases. […] The amorphous sample is hygroscopic until it deliquesces and starts crystallizing.

[4] = Three month stability and forced degradation study: visual observations of stored solids
Description: as §1, §2, §3

[5] = Three month stability and forced degradation study: particle morphology by polarised light microscopy (PLM); conditions: Replicate 1
Description: Samples were studied on a Leica LM/DM polarised light microscope with a digital video camera for image capture. A small amount of each sample was placed on a glass slide, 15 mounted in immersion oil and covered with a glass slip, the individual particles being separated as well as possible. The sample was viewed with appropriate magnification and partially polarised light, coupled to a λ false-color filter.
as §1, §2

[6] = solid stored 25° C., 0% RH, 4 weeks, Replicate 1
[7] = solid stored 25° C., 0% RH, 8 weeks, Replicate 1
[8] = solid stored 25° C., 0% RH, 12 weeks, Replicate 1
[9] = solid stored 25° C., 0% RH, 12 weeks, Replicate 1, listed as Amorphous material
[10] = solid stored 25° C., 60% RH, 2 weeks, Replicate 2
[11] = solid stored 25° C., 60% RH, 4 weeks, Replicate 1
[12] = solid stored 25° C., 60% RH, 6 weeks, Replicate 2
[13] = solid stored 25° C., 60% RH, 8 weeks, Replicate 1
[14] = solid stored 25° C., 60% RH, 10 weeks, Replicate 2
[15] = solid stored 25° C., 60% RH, 12 weeks, Replicate 1
[16] = solid stored 25° C., 60% RH, 12 weeks, Replicate 2
[17] = solid stored 25° C., 97% RH, 2 weeks, Replicate 2
[18] = solid stored 25° C., 97% RH, 4 weeks, Replicate 1
[19] = solid stored 25° C., 97% RH, 6 weeks, Replicate 2
[20] = solid stored 25° C., 97% RH, 10 weeks, Replicate 2
[21] = solid stored 25° C., 97% RH, 12 weeks, Replicate 2
[22] = solid stored 40° C., 75% RH, 2 weeks, Replicate 2
[23] = solid stored 40° C., 75% RH, 4 weeks, Replicate 1
[24] = solid stored 40° C., 75% RH, 6 weeks, Replicate 2
[25] = solid stored 40° C., 75% RH, 8 weeks, Replicate 1
[26] = solid stored 40° C., 75% RH, 10 weeks, Replicate 2
[27] = solid stored 40° C., 75% RH, 12 weeks, Replicate 2
[28] = solid stored 40° C., 75% RH, 12 weeks, Replicate 2, listed as amorphous material
[29] = t = 0, baseline of the stability study, listed as J07086
[30] = solid stored 25° C., 0% RH, 4 weeks
[31] = solid stored 25° C., 0% RH, 8 weeks
[32] = solid stored 25° C., 0% RH, 12 weeks
[33] = solid stored 25° C., 60% RH, 4 weeks
[34] = solid stored 25° C., 60% RH, 12 weeks
[35] = solid stored 25° C., 97% RH, 4 weeks
[36] = solid stored 40° C., 75% RH, 4 weeks

## NC(=O)c1ccc[n+]([C@@H]2O[C@H](COP(=O)([O-])O)[C@@H](O)[C@H]2O)c1 [Form J07087, β-nicotinamide mononucleotide, reference compound]
[1]; [6]
  Known Impurity* (%) (nicotinamide, RRT = 1.73 min): 1.81%
  Purity (%): 96.9%
[1]; [7]
  Known Impurity* (%) (nicotinamide, RRT = 1.73 min): 2.44%
  Purity (%): 95.8%
[1]; [8]
  Known Impurity* (%) (nicotinamide, RRT = 1.73 min): 2.81%
  Purity (%): 95.0%
[1]; [9]
  Known Impurity* (%) (nicotinamide, RRT = 1.73 min): 2.8%
  Purity (%): 95.5%
[1]; [10]
  Known Impurity* (%) (nicotinamide, RRT = 1.73 min): 2.14%
  Purity (%): 97.4%
[1]; [11]
  Known Impurity* (%) (nicotinamide, RRT = 1.73 min): 2.13%
  Purity (%): 96.9%
[1]; [12]
  Known Impurity* (%) (nicotinamide, RRT = 1.73 min): 2.06%
  Purity (%): 97.4%
[1]; [13]
  Known Impurity* (%) (nicotinamide, RRT = 1.73 min): 3.46%
  Purity (%): 95.2%
[1]; [14]
  Known Impurity* (%) (nicotinamide, RRT = 1.73 min): 2.92%
  Purity (%): 96.0%
[1]; [15]
  Known Impurity* (%) (nicotinamide, RRT = 1.73 min): 3.46%
  Purity (%): 95.7%
[1]; [16]
  Known Impurity* (%) (nicotinamide, RRT = 1.73 min): 2.32%
  Purity (%): 96.2%
[1]; [17]
  Known Impurity* (%) (nicotinamide, RRT = 1.73 min): 1.79%
  Purity (%): 97.8%
[1]; [18]
  Known Impurity* (%) (nicotinamide, RRT = 1.73 min): 2.44%
  Purity (%): 97.1%
[1]; [19]
  Known Impurity* (%) (nicotinamide, RRT = 1.73 min): 3.01%
  Purity (%): 96.5%
[1]; [20]
  Known Impurity* (%) (nicotinamide, RRT = 1.73 min): 4.39%
  Purity (%): 94.9%
[1]; [21]
  Known Impurity* (%) (nicotinamide, RRT = 1.73 min): 7.02%
  Purity (%): 91.5%
[1]; [22]
  Known Impurity* (%) (nicotinamide, RRT = 1.73 min): 4.61%
  Purity (%): 94.6%
[1]; [23]
  Known Impurity* (%) (nicotinamide, RRT = 1.73 min): 6.70%
  Purity (%): 91.3%
[1]; [24]
  Known Impurity* (%) (nicotinamide, RRT = 1.73 min): 8.22%
  Purity (%): 88.0%
[1]; [25]
  Known Impurity* (%) (nicotinamide, RRT = 1.73 min): 14.23%
  Purity (%): 76.9%
[1]; [26]
  Known Impurity* (%) (nicotinamide, RRT = 1.73 min): 16.18%
  Purity (%): 75.9%
[1]; [27]
  Known Impurity* (%) (nicotinamide, RRT = 1.73 min): 20.60%
  Purity (%): ~67.5^$ %
[1]; [28]
  Known Impurity* (%) (nicotinamide, RRT = 1.73 min): 20.6%
  Purity (%): 67.5%
[1]; [29]
  HPLC purity profile, Area % of main peak (RRT 1.00): 98.56 Area %
  HPLC purity profile, Area % of peak at RRT 1.76 / 1.74 (nicotinamide): 0.87 Area %
[1]; time 0, listed as Amorphous material
  Purity: 98.2%
[2]; 12 weeks at 25° C., 0% RH
  solid form and particle morphology after storage: remained unchanged
[2]; [30]
  XRPD: Unchanged
[2]; [31]
  XRPD: Unchanged
[2]; [32]
  XRPD: Unchanged
[2]; [33]
  XRPD: Form 1
[2]; solid stored 25° C., 60% RH, 8 weeks
  XRPD: Form 1
[2]; [34]
  XRPD: Form 1
[2]; [35]
  XRPD: Form 1
[2]; [36]
  XRPD: Form 1
[2]; solid stored 40° C., 75% RH, 8 weeks
  XRPD: Form 1
[2]; solid stored 40° C., 75% RH, 12 weeks
  XRPD: Form 1
[2]; stored under 25% or greater relative humidity, gives Form 1 with acicular morphology
  solid form on storage under humidity: crystallized
[3]; once crystallised, double cycle
  reversible mass pick up (DVS): up to 9 % w/w
[3]; until it deliquesces and starts crystallizing
  behaviour on exposure to atmospheric humidity (DVS change in mass plot): hygroscopic
[4]; [6]
  Observations: white solid
[4]; [7]
  Observations: white solid
[4]; [8]
  Observations: white solid
[4]; [10]
  Observations: light yellow solid,
[4]; [11]
  Observations: brown solid
[4]; [12]
  Observations: light brown,
[4]; [13]
  Observations: brown solid,
[4]; [14]
  Observations: light brown,
[4]; [15]
  Observations: brown solid,
[4]; [16]
  Observations: light brown,
[4]; [17]
  Observations: white compacted
[4]; [18]
  Observations: white solid,
[4]; [19]
  Observations: white solid,
[4]; solid stored 25° C., 97% RH, 8 weeks, Replicate 1
  Observations: partially
[4]; [20]
  Observations: white solid,
[4]; solid stored 25° C., 97% RH, 12 weeks, Replicate 1
  Observations: deliquesced.
[4]; [21]
  Observations: white solid,
[4]; [22]
  Observations: brown compacted
[4]; [23]
  Observations: brown
[4]; [24]
  Observations: dark brown solid
[4]; [25]
  Observations: brown
[4]; [26]
  Observations: black solid
[4]; solid stored 40° C., 75% RH, 12 weeks, Replicate 1
  Observations: black solid,
[4]; [27]
  Observations: black solid,
[5]; [30]
  PLM: Unchanged
[5]; [31]
  PLM: Unchanged
[5]; [32]
  PLM: Unchanged
[5]; [33]
  PLM: acicular
[5]; [34]
  PLM: acicular
[5]; [35]
  PLM: acicular
[5]; [36]
  PLM: acicular
